Here are results for 3 molecules from patent US9155329B2, “Flavour compositions” (Givaudan Nederland Services B.V., priority 2005, dated 2015).

Where two headings read alike, the source gives them in different places.

The conditions of assay [1]: sample B: ice cream (8% vegetable fat) + strawberry flavour + 7 ppm substance, versus A without substance. The method, then: […] ice cream (8% vegetable fat) samples were prepared: • A: Ice cream (see table 2)+strawberry flavour • B: Ice cream (see table 2)+strawberry flavour+7 ppm N-gluconyl 1-amino-2-methyl-2-propanol (as prepared in Example 5)
The ice creams were tasted by a professional panel.

For assay [2] the following is noted: standard chicken soup dosed to 5 ppm substance, versus reference soup. The protocol:
A standard chicken soup was prepared. The quantity was split in two. One part was kept as reference and the other part was dosed to contain 5 ppm of N-gluconyl 2-amino-2-methyl-propanol (as prepared in Example 8). The soups were tasted by a professional panel.

The procedure of assay [3]:
Four yoghurt samples were prepared: • A: Yoghurt 0% fat+strawberry flavour+sucralose (25%) 300 ppm • B: Yoghurt 0% fat+strawberry flavour+sucralose (25%) 300 ppm+10 ppm N-gluconyl 2-amino-2-methyl-propanol (as prepared in Example 8) • C: Yoghurt 0% fat+strawberry flavour+4% sugar • D: Yoghurt 0% fat+strawberry flavour+4% sugar+10 ppm N-gluconyl 2-amino-2-methyl-propanol (as prepared in Example 8)
The yoghurts were tasted by a professional panel.

Assay [4] is described as follows: Aqueous NaCl solution tasting by a sensory panel. The following applies: solution B: 0.5% NaCl and 12 ppm substance; solution A (0.5% NaCl alone) described as salty. The method, then:
Two aqueous solutions were prepared: • A. 0.5% NaCl • B. 0.5% NaCl and 12 ppm of N-lactoyl 2-amino-2-methyl-propanol (as prepared in Example 4)

Assay [5] is described as follows: Carbonated orange flavoured soft drink evaluation. The following applies: compared to original drink. The method, then:
Two different soft drinks A and B were prepared by adding respectively 40 ppb and 4 ppm of N-lactoyl 2-amino-2-methyl-propanol (as prepared in Example 4) to a commercially available carbonated orange flavoured soft drink.

In the case of `CC(C)(O)CNC(=O)[C@H](O)[C@@H](O)[C@H](O)[C@H](O)CO` [N-gluconyl 1-amino-2-methyl-2-propanol], the taste description result in assay [1] was “more round and natural taste, very clear sweet enhancement and increased creaminess”.

On to `CC(C)(CO)NC(=O)[C@H](O)[C@@H](O)[C@H](O)[C@H](O)CO` [N-gluconyl 2-amino-2-methyl-propanol, N-gluconyl 2-amino-2-methylpropanol], for which the taste description entry was “more tasteful, more complete, more body, more fatty” in assay [2]; “fuller more round and natural taste, more sugar sweetness, significantly less bitter metallic aftertaste compared to A” in assay [3] (sample B: yoghurt 0% fat + strawberry flavour + sucralose (25%) 300 ppm + 10 ppm substance, compared to A without substance); “fuller more round and natural taste, more intense sweet compared to C” in assay [3] (sample D: yoghurt 0% fat + strawberry flavour + 4% sugar + 10 ppm substance, compared to C without substance).

In the case of `CC(O)C(=O)NC(C)(C)CO` (stereo not shown) [N-lactoyl 2-amino-2-methyl-propanol, N-lactoyl 2-amino-2-methylpropanol], the taste description result in assay [4] is ““high impact”, “bouillon”, “meaty”, “salty”, “umami” and “salivating””; in assay [5] (sample A: 40 ppb substance in commercial carbonated orange flavoured soft drink) it was “more natural, with a more juicy character than the original”; in assay [5] (sample B: 4 ppm substance in commercial carbonated orange flavoured soft drink), “tingling character typical of the flavour modulating substances of the present invention, which was judged as very pleasant and particularly well suited for the orange flavour”.
